From the supplement of paper PMC10307832

Columns and labels:
Assay in all cases: relative viability (nuclei count vs DMSO), 5 days (fraction); higher = more cells survive
BGJ398 + Foretinib = compound: CCN1CCN(c2ccc(Nc3cc(N(C)C(=O)Nc4c(Cl)c(OC)cc(OC)c4Cl)ncn3)cc2)CC1 [BGJ398] + COc1cc2c(Oc3ccc(NC(=O)C4(C(=O)Nc5ccc(F)cc5)CC4)cc3F)ccnc2cc1OCCCN1CCOCC1 [Foretinib] (partner 0.25 µM)
Summary of the method: (§1)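 Lung cancer cell lines were pin-tool dosed in 1536-well plates on the day after seeding, with either a lone drug or a fixed anchor-drug dose plus five library-drug doses (not always all listed) in √10 steps. Nuclei were counted on 4× images after 5 days. Relative viability is the ratio of treated-well to vehicle-well nuclei counts, with each value a median of duplicate plates.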

[1] = compound: C1=CC2=NC=CN=C2C=C1/C=C/3\C(=O)NC(=O)S3 + Cc1nc(NC(=O)N2CCC[C@H]2C(N)=O)sc1-c1ccnc(C(C)(C)C(F)(F)F)c1 [Alpelisib] (partner 2 µM)
Summary of the method: as §1

BGJ398 + Phenformin = compound: CCN1CCN(c2ccc(Nc3cc(N(C)C(=O)Nc4c(Cl)c(OC)cc(OC)c4Cl)ncn3)cc2)CC1 [BGJ398] + N=C(N)NC(=N)NCCc1ccccc1 [Phenformin] (partner 250 µM)
Summary of the method: as §1

[2] = compound: C1=CC2=NC=CN=C2C=C1/C=C/3\C(=O)NC(=O)S3 + Cc1nc(Nc2ncc(C(=O)Nc3c(C)cccc3Cl)s2)cc(N2CCN(CCO)CC2)n1 [Dasatinib] (partner 0.075 µM)
Summary of the method: as §1

Row | Cell Line | relative viability (BGJ398 + Foretinib; first compound 0.01 µM) | relative viability (BGJ398 + Foretinib; first compound 0.03162 µM) | relative viability (BGJ398 + Foretinib; first compound 0.1 µM) | relative viability (BGJ398 + Foretinib; first compound 0.3162 µM) | relative viability (BGJ398 + Foretinib; first compound 1 µM) | relative viability ([1]; first compound 0.02 µM) | relative viability ([1]; first compound 0.06325 µM) | relative viability ([1]; first compound 0.2 µM) | relative viability ([1]; first compound 0.6325 µM) | relative viability ([1]; first compound 2 µM) | relative viability (BGJ398 + Phenformin; first compound 0.01 µM) | relative viability (BGJ398 + Phenformin; first compound 0.03162 µM) | relative viability (BGJ398 + Phenformin; first compound 0.1 µM) | relative viability (BGJ398 + Phenformin; first compound 0.3162 µM) | relative viability (BGJ398 + Phenformin; first compound 1 µM) | relative viability ([2]; first compound 0.02 µM) | relative viability ([2]; first compound 0.06325 µM) | relative viability ([2]; first compound 0.2 µM) | relative viability ([2]; first compound 0.6325 µM) | relative viability ([2]; first compound 2 µM)
1 | 201T | 1.18 | 1.1 | 1.05 | 0.958 | 1.02 | 0.955 | 1.05 | 1.01 | 0.978 | 0.877 | 0.45 | 0.444 | 0.457 | 0.382 | 0.386 | 0.543 | 0.619 | 0.583 | 0.556 | 0.28
2 | A549 | 0.919 | 0.939 | 0.97 | 0.944 | 1.09 | 0.847 | 1.1 | 0.67 | 0.729 | 0.557 | 0.12 | 0.217 | 0.154 | 0.125 | 0.11 |  |  |  |  | 
3 | A-427 | 1.09 | 0.919 | 0.954 | 0.715 | 0.623 | 1.06 | 1.08 | 1.1 | 1.07 | 1.12 | 0.354 | 0.336 | 0.273 | 0.151 | 0.211 | 0.685 | 0.753 | 0.692 | 0.659 | 0.541
4 | ABC-1 | 0.962 | 1.19 | 1.05 | 1.26 | 0.973 | 1 | 1.14 | 0.933 | 1.01 | 1.02 | 0.287 | 0.255 | 0.262 | 0.22 | 0.213 | 0.507 | 0.757 | 0.488 | 0.611 | 0.538
5 | BEN | 0.722 | 0.866 | 0.568 | 0.395 | 0.453 | 1.07 | 0.877 | 1.22 | 0.911 | 1.09 | 0.263 | 0.284 | 0.284 | 0.261 | 0.241 | 0.362 | 0.35 | 0.297 | 0.352 | 0.252
6 | CAL-12T | 1.04 | 1.13 | 1.04 | 1.11 | 1.12 | 1.3 | 1.11 | 1.11 | 1.3 | 1.15 | 0.542 | 0.621 | 0.599 | 0.579 | 0.642 | 0.417 | 0.34 | 0.439 | 0.304 | 0.139
7 | COR-L23 | 0.955 | 1.09 | 1.04 | 0.865 | 1.14 | 0.736 | 0.896 | 0.83 | 0.72 | 0.696 | 0.42 | 0.441 | 0.5 | 0.397 | 0.391 | 0.446 | 0.481 | 0.395 | 0.477 | 0.344
8 | COR-L 105 | 1.05 | 1.13 | 1.09 | 1.07 | 0.892 | 1.22 | 0.861 | 0.901 | 1.02 | 0.751 | 0.425 | 0.377 | 0.525 | 0.556 | 0.448 | 0.343 | 0.344 | 0.376 | 0.402 | 0.279
9 | Calu-6 | 0.879 | 0.819 | 0.912 | 0.836 | 0.88 | 1.02 | 1.11 | 1.04 | 0.902 | 0.845 |  |  |  |  |  |  |  |  |  | 
10 | ChaGo-K-1 | 0.899 | 0.991 | 0.914 | 1.01 | 0.907 |  |  |  |  |  | 0.488 | 0.47 | 0.525 | 0.487 | 0.458 | 0.611 | 0.574 | 0.596 | 0.544 | 0.499
11 | EBC-1 | 0.0959 | 0.0812 | 0.0909 | 0.109 | 0.108 | 0.819 | 1.05 | 0.788 | 0.849 | 0.854 |  |  |  |  |  |  |  |  |  | 
12 | EKVX | 0.763 | 0.409 | 0.805 | 0.643 | 0.686 | 0.834 | 0.78 | 0.869 | 0.784 | 0.771 | 0.216 | 0.211 | 0.235 | 0.234 | 0.209 | 0.515 | 0.356 | 0.701 | 0.524 | 0.427
13 | EMC-BAC-2 | 1.12 | 1.02 | 0.98 | 1.05 | 0.992 | 0.707 | 0.784 | 0.756 | 0.709 | 0.75 | 0.497 | 0.585 | 0.558 | 0.5 | 0.509 | 0.309 | 0.297 | 0.33 | 0.322 | 0.224
14 | EPLC-272H | 0.794 | 0.534 | 0.84 | 0.724 | 0.74 | 1.05 | 1.05 | 1.01 | 0.833 | 0.939 | 0.243 | 0.283 | 0.272 | 0.247 | 0.38 | 0.43 | 0.462 | 0.421 | 0.294 | 0.153
15 | H3255 | 0.985 |  | 0.961 | 0.386 | 0.878 | 0.734 | 0.903 | 0.661 | 0.907 | 0.717 | 0.338 |  | 0.371 | 0.231 | 0.35 | 0.365 | 0.329 | 0.348 | 0.379 | 0.38
16 | HARA | 0.941 | 0.901 | 0.829 | 0.905 | 0.79 | 0.749 | 0.696 | 0.844 | 0.806 | 0.859 | 0.442 | 0.545 | 0.482 | 0.319 | 0.382 | 0.278 | 0.315 | 0.3 | 0.243 | 0.194
17 | HCC-15 | 0.978 | 1.1 | 1.04 | 1.13 | 1.07 | 0.813 | 0.923 | 0.884 | 0.849 | 0.839 | 0.439 | 0.497 | 0.504 | 0.475 | 0.496 | 0.665 | 0.644 | 0.687 | 0.55 | 0.42
18 | HCC-44 |  |  |  |  |  | 0.693 | 0.893 | 0.852 | 0.764 | 0.745 | 0.213 | 0.349 | 0.193 | 0.195 | 0.161 |  |  |  |  | 
